Assay results reported in ChEMBL document CHEMBL2396624, “Rearranged limonoids and chromones from Harrisonia perforata and their anti-inflammatory activity” (Bioorg Med Chem Lett, 2013).

Test system: not listed separately
Experiment: Antiinflammatory activity in mouse J774A1 cells assessed as reduction of LPS-induced nitric oxide production treated 2 hrs before LPS addition measured after 20 hrs by using Griess reagent
Assay type: functional, cell-based
Settings: J774.A1

Row | SMILES | IC50
1 | CC(=O)c1c(O)c(CC=C(C)C)c(O)c2c1O[C@](C)(CCC=C(C)C)[C@H](OO)C2 | 31 µM
2 | C[C@H]1c2ccoc2C[C@H]2[C@H]1CC[C@@H]1[C@]2(C)CCC[C@]1(C)C(=O)O [(+)-VOUACAPENIC ACID] | 132 µM
3 | COC(=O)/C=C\[C@]1(C)[C@H]2CC[C@@]3(C)[C@H](C4=CC(O)OC4=O)OC(=O)[C@H]4O[C@]43[C@]2(C)[C@]2(O)OC(C)(C)C(=O)[C@@]21O (some centres not stated) [HARPERFOLIDE] | 6.51 µM
4 | COC(=O)/C=C\[C@]1(C)[C@H]2CC[C@@]3(C)[C@H](c4ccoc4)OC(=O)[C@H]4O[C@]43[C@]2(C)[C@]2(O)OC(C)(C)C(=O)[C@@]21O [HARRISONIN] | 135 µM
5 | COc1ccc2c(c1)c(CC(=O)O)c(C)n2C(=O)c1ccc(Cl)cc1 [INDOMETHACIN] | 28.4 µM
6 | CC1(C)OC(=O)C=C[C@]2(C)[C@H]3CC[C@@]4(C)[C@H](c5ccoc5)OC(=O)[C@H]5O[C@]54[C@]3(C)C(=O)C[C@@H]12 [OBACUNONE] | 83.6 µM

Continued, values first:

Row | IC50 | SMILES
7 | 56.4 µM | COc1cc2oc(C)cc(=O)c2c(O)c1CC=C(C)C
8 | 66.4 µM | COc1cc2c(c3oc(C)cc(=O)c13)C=CC(C)(C)O2
9 | 55 µM | COC(=O)c1cc(=O)c2c(O)cc3c(c2o1)C=CC(C)(C)O3
10 | 49.6 µM | COc1cc(O)c2c(=O)cc(C)oc2c1CCC(C)(C)O [HARPERAMONE]

Test system: not listed separately
Experiment: Cytotoxicity against mouse J774A1 cells assessed as cell viability at 2.5 to 20 uM after 20 hrs by MTT assay
Assay type: cell-based
Settings: j774.a1, 20 h

Row | SMILES | Activity
11 | COC(=O)/C=C\[C@]1(C)[C@H]2CC[C@@]3(C)[C@H](C4=CC(O)OC4=O)OC(=O)[C@H]4O[C@]43[C@]2(C)[C@]2(O)OC(C)(C)C(=O)[C@@]21O (some centres not stated) [HARPERFOLIDE] | Non-toxic

Test system: J774.A1
Experiment: Antiinflammatory activity in mouse J774A1 cells assessed as reduction of LPS-induced iNOS expression after 6 to 12 hrs by Western blot analysis
Assay type: functional, cell-based
Settings: not given

Row | SMILES | Activity
12 | COC(=O)/C=C\[C@]1(C)[C@H]2CC[C@@]3(C)[C@H](C4=CC(O)OC4=O)OC(=O)[C@H]4O[C@]43[C@]2(C)[C@]2(O)OC(C)(C)C(=O)[C@@]21O (some centres not stated) [HARPERFOLIDE] | Dose-dependent effect
